# In US8334287B2 (Hoffmann-La Roche Inc., priority 2009, dated 2012):
# Biological target: T1, human mGlu5a receptor (Homo sapiens, UniProt P41594)
# T1 construct: expressed in transfected cells; host or cells: EBNA cells (transient transfection); membranes prepared from them
# Assay: mGlu5a receptor binding, displacement of [3H]MPEP
# Settings: competing radioligand [3H]MPEP; human mGlu5a receptor transiently transfected into EBNA cells; Ki=IC50/1+L/Kd
# Procedure: For binding experiments, cDNA encoding human mGlu5a receptor was transiently transfected into EBNA cells using a procedure described by E.-J. Schlaeger and K. Christensen (Cytotechnology 1998, 15, 1-13). For functional assays, [Ca^2+]i measurements were performed largely as described previously (Porter et al., Br J. Pharmacol 1999, 128, 13-20) on stably expressed recombinant human mGlu 5a receptors in HEK-293 cells. The cells were dye loaded using Fluo 4-AM (purchased from Molecular Probes, 2 μM final concentration) [Ca^2+]i measurements were performed using a fluorometric imaging plate reader (FLIPR, Molecular Devices Corporation, La Jolla, Calif., USA). Antagonist evaluation was performed following a 5 minute preincubation with the test compounds followed by the addition of a submaximal addition of agonist.
# The inhibition (antagonists) curves were fitted with a four parameter logistic equation giving IC50, and Hill coefficient using the iterative non linear curve fitting software Xcel fit.
# The Ki values of the compounds tested are given. The Ki value is defined by the following formula: Ki=IC50/1+L/Kd in which the IC50 values are those concentrations of the compounds tested in which causes 50% inhibition of the competing radioligand ([^3H]MPEP). [L] is the concentration of radioligand used in the binding experiment and the Kd value of the radioligand is empiracally determined for each batch of membranes prepared.
# T1 sequence (P41594 21-1180 isoform P41594-2 limits assumed): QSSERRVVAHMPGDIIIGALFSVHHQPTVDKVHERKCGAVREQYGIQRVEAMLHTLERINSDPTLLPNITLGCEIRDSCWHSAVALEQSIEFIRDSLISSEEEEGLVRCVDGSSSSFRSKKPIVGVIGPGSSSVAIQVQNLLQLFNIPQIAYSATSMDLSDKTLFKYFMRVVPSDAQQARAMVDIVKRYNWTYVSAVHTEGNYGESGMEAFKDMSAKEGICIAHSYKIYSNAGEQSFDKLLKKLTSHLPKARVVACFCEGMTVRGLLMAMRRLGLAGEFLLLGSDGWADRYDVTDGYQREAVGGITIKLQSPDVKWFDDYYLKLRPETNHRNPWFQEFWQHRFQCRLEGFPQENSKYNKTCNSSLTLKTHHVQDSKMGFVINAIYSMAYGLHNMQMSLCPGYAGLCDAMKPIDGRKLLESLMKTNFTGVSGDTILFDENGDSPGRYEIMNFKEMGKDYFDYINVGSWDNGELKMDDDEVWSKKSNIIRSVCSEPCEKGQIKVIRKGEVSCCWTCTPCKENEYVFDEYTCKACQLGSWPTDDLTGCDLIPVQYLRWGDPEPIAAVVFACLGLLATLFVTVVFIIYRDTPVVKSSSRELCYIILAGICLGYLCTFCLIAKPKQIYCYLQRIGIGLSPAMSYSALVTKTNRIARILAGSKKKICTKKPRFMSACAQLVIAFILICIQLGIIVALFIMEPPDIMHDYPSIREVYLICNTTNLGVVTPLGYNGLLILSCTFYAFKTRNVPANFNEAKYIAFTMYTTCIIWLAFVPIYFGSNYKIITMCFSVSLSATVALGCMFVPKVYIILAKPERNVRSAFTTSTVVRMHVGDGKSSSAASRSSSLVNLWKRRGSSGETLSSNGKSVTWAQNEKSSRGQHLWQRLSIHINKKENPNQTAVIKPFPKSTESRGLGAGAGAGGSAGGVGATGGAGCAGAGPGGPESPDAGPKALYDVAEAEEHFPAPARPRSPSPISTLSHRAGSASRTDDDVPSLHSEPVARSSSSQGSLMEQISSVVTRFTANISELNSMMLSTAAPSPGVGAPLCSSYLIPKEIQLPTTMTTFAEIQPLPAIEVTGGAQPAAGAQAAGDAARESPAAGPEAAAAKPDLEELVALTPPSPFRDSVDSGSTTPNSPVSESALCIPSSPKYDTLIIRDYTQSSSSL
row,Ki [µM],Compound
1,0.037,"CCn1ncc(-n2cc(C#Cc3cccc(Cl)c3)nc2C)cc1=O [Example 52, 5-[4-(3-Chloro-phenylethynyl)-2-methyl-imidazol-1-yl]-2-ethyl-2H-pyridazin-3-one]"
2,0.046,"CCn1ccc(-n2c(C)nc(C#Cc3cccc(C)c3)c2C)cc1=O [Example 32, 4-[2,5-dimethyl-4-m-tolylethynyl-imidazol-1-yl]-1-ethyl-1H-pyridin-2-one]"
3,0.061,"Cc1cccc(C#Cc2nc(C)n(-c3ccn(C)c(=O)c3)c2C)c1 [Example 31, 4-[2,5-dimethyl-4-m-tolylethynyl-imidazol-1-yl]-1-methyl-1H-pyridin-2-one]"
4,0.033,"Cc1nc(C#Cc2cccc(Cl)c2)c(C)n1-c1ccn(C)c(=O)c1 [Example 26, 4-[4-(3-chloro-phenylethynyl)-2,5-dimethyl-imidazol-1-yl]-1-methyl-1H-pyridin-2-one]"
5,0.04,"Cc1nc(C#Cc2cccc(Cl)c2)cn1-c1cc[nH]c(=O)c1 [Example 1, 4-[4-(3-chloro-phenylethynyl)-2-methyl-imidazol-1-yl]-1H-pyridin-2-one]"
6,0.222,"Cc1nc(C#Cc2cccc(Cl)c2)c(C)n1-c1ccn(CCO)c(=O)c1 [Example 28, 4-[4-(3-chloro-phenylethynyl)-2,5-dimethyl-imidazol-1-yl]-1-(2-hydroxy-ethyl)-1H-pyridin-2-one]"
7,0.069,"Cc1nc(C#Cc2cccc(Cl)c2)cn1-c1ccn(C)c(=O)c1 [Example 2, 4-[4-(3-chloro-phenylethynyl)-2-methyl-imidazol-1-yl]-1-methyl-1H-pyridin-2-one]"
8,0.277,"Cc1nc(C#Cc2ccnc(Cl)c2)cn1-c1cc(=O)n(C)cn1 [Example 24, 6-[4-(2-chloro-pyridin-4-ylethynyl)-2-methyl-imidazol-1-yl]-3-methyl-3H-pyrimidin-4-one]"
9,0.148,"Cc1nc(C#Cc2cccc(Cl)c2)c(C)n1-c1cc[nH]c(=O)c1 [Example 25, 4-[4-(3-chloro-phenylethynyl)-2,5-dimethyl-imidazol-1-yl]-1H-pyridin-2-one]"
10,0.053,"CCn1ncc(-n2cc(C#Cc3cccc(C)c3)nc2C)cc1=O [Example 51, 2-ethyl-5-(2-methyl-4-m-tolylethynyl-imidazol-1-yl)-2H-pyridazin-3-one]"
11,0.04,"Cc1nc(C#Cc2cccc(Cl)c2)cn1-c1cnn(C)c(=O)c1 [Example 21, 5-[4-(3-chloro-phenylethynyl)-2-methyl-imidazol-1-yl]-2-methyl-2H-pyridazin-3-one]"
12,0.808,"COCCn1ncc(-n2c(C)nc(C#Cc3ccnc(Cl)c3)c2C)cc1=O [Example 57, 5-[4-(2-Chloro-pyridin-4-ylethynyl)-2,5-dimethyl-imidazol-1-yl]-2-(2-methoxy-ethyl)-2H-pyridazin-3-one]"
